Test results taken from patent US6905841B2, “Enzymatic substrates for detecting Pseudomonas aeruginas” (Biomerieux S.A., priority 1999, dated 2005).
Read-outs that look alike come from different tables or passages of the source.

Tests used:
[1] = system: β-alanine aminopeptidase; conditions: Aeromonas hydrophila; 2 strains tested; read after 22 to 24 hours
[2] = system: β-alanine aminopeptidase; conditions: Pseudomonas stutzeri; 3 strains tested; read after 22 to 24 hours
[3] = system: β-alanine aminopeptidase; conditions: Achromobacter xylosoxydans; 2 strains tested; read after 22 to 24 hours
[4] = system: β-alanine aminopeptidase; conditions: Enterobacter cloacae; 2 strains tested; read after 22 to 24 hours
[5] = system: β-alanine aminopeptidase; conditions: Moraxella non liquefaciens; 2 strains tested; read after 22 to 24 hours
[6] = system: β-alanine aminopeptidase; conditions: Klebsiella pneumoniae; 3 strains tested; read after 22 to 24 hours
[7] = system: β-alanine aminopeptidase; conditions: Providencia stuartii; 1 strain tested; read after 22 to 24 hours
[8] = system: β-alanine aminopeptidase; conditions: Ralstonia pickettii; 1 strain tested; read after 22 to 24 hours
[9] = system: β-alanine aminopeptidase; conditions: Enterococcus faecalis; 2 strains tested; read after 22 to 24 hours
[10] = system: β-alanine aminopeptidase; conditions: Salmonella arizonae; 1 strain tested; read after 22 to 24 hours
[11] = system: β-alanine aminopeptidase; conditions: Pseudomonas aeruginosa; 13 strains tested; read after 22 to 24 hours
[12] = system: β-alanine aminopeptidase; conditions: Myroïdes spp.; 1 strain tested; read after 22 to 24 hours
[13] = system: β-alanine aminopeptidase; test: APIZYM-type test strips with β-alanyl-β-naphthylamide; assay type: cell-based; conditions: Plesiomonas shigelloïdes; five strains
[14] = system: β-alanine aminopeptidase; test: as above; assay type: cell-based; conditions: proches de Pasteurella; 4 strains
[15] = system: β-alanine aminopeptidase; test: as above; assay type: cell-based; conditions: Enterobacter aerogenes; five strains
[16] = system: β-alanine aminopeptidase; test: as above; assay type: cell-based; conditions: Moraxella bovis; 4 strains
[17] = system: β-alanine aminopeptidase; test: as above; assay type: cell-based; conditions: Salmonella typhi; five strains
[18] = system: β-alanine aminopeptidase; test: as above; assay type: cell-based; conditions: Psychrobacter phenylpyruvicus; 4 strains
[19] = system: β-alanine aminopeptidase; test: as above; assay type: cell-based; conditions: Chryseobacterium indologenes; five strains
[20] = system: β-alanine aminopeptidase; test: as above; assay type: cell-based; conditions: Sphingobacterium multivorum; five strains
[21] = system: β-alanine aminopeptidase; test: as above; assay type: cell-based; conditions: Shigella sonnei; five strains
[22] = system: β-alanine aminopeptidase; test: as above; assay type: cell-based; conditions: Alcaligenes faecalis/odorans; five strains
[23] = system: β-alanine aminopeptidase; test: as above; assay type: cell-based; conditions: Klebsiella rhinoscleromatis; 3 strains
[24] = system: β-alanine aminopeptidase; test: as above; assay type: cell-based; conditions: Salmonella spp.; five strains
[25] = system: β-alanine aminopeptidase; test: as above; assay type: cell-based; conditions: Achromobacter xylosoxidans, spp. xylosoxidans; five strains
[26] = system: β-alanine aminopeptidase; test: as above; assay type: cell-based; conditions: Citrobacter freundii; five strains
[27] = system: β-alanine aminopeptidase; test: as above; assay type: cell-based; conditions: Yersinia enterocolitica; five strains
[28] = system: β-alanine aminopeptidase; test: as above; assay type: cell-based; conditions: Serratia odorifera; five strains
[29] = system: β-alanine aminopeptidase; test: as above; assay type: cell-based; conditions: Pseudomonas fluorescens; five strains
[30] = system: β-alanine aminopeptidase; assay type: cell-based; conditions: Yersinia pseudotuberculosis; five strains
[31] = system: β-alanine aminopeptidase; test: APIZYM-type test strips with β-alanyl-β-naphthylamide; assay type: cell-based; conditions: Proteus mirabilis; five strains
[32] = system: β-alanine aminopeptidase; test: as above; assay type: cell-based; conditions: Chryseobacterium balustinum; 1 strain
[33] = system: β-alanine aminopeptidase; test: as above; assay type: cell-based; conditions: Moraxella paraphenylpyruvica; 3 strains
[34] = system: β-alanine aminopeptidase; test: as above; assay type: cell-based; conditions: Weeksella virosa; 4 strains
[35] = system: β-alanine aminopeptidase; test: as above; assay type: cell-based; conditions: Pseudomonas aeruginosa; five strains
[36] = system: β-alanine aminopeptidase; test: as above; assay type: cell-based; conditions: Brevundimonas diminuta; five strains
[37] = system: β-alanine aminopeptidase; test: as above; assay type: cell-based; conditions: Comamonas acidovorans; five strains

NCCC(=O)c1c(N)cc(Cl)c(O)c1Cl
Number of negative results [1]: 2
Number positive results [1]: 0
Number of negative results [2]: 3
Number positive results [2]: 0
Number of negative results [3]: 2
Number positive results [3]: 0
Number of negative results [4]: 2
Number positive results [4]: 0
Number of negative results [5]: 2
Number positive results [5]: 0
Number of negative results [6]: 3
Number positive results [6]: 0
Number of negative results [7]: 1
Number positive results [7]: 0
Number of negative results [8]: 1
Number positive results [8]: 0
Number of negative results [9]: 2
Number positive results [9]: 0
Number of negative results [10]: 1
Number positive results [10]: 0
Number of negative results [11]: 0
Number positive results [11]: 13
Number of negative results [12]: 1
Number positive results [12]: 0

β-alanyl-β-naphthylamide
β-alanine aminopeptidase activity, result [13]: negative
β-alanine aminopeptidase activity, result [14]: negative
β-alanine aminopeptidase activity, result [15]: negative
β-alanine aminopeptidase activity, result [16]: negative
β-alanine aminopeptidase activity, result [17]: negative
β-alanine aminopeptidase activity, result [18]: negative
β-alanine aminopeptidase activity, result [19]: negative
β-alanine aminopeptidase activity, result [20]: negative
β-alanine aminopeptidase activity, result [21]: negative
β-alanine aminopeptidase activity, result [22]: negative
β-alanine aminopeptidase activity, result [23]: negative
β-alanine aminopeptidase activity, result [24]: negative
β-alanine aminopeptidase activity, result [25]: negative
β-alanine aminopeptidase activity, result [26]: negative
β-alanine aminopeptidase activity, result [27]: negative
β-alanine aminopeptidase activity, result [28]: negative
β-alanine aminopeptidase activity, result [29]: positive
β-alanine aminopeptidase activity, result [30]: negative
β-alanine aminopeptidase activity, result [31]: negative
β-alanine aminopeptidase activity, result [32]: negative
β-alanine aminopeptidase activity, result [33]: negative
β-alanine aminopeptidase activity, result [34]: negative
β-alanine aminopeptidase activity, result [35]: positive
β-alanine aminopeptidase activity, result [36]: negative
β-alanine aminopeptidase activity, result [37]: negative
